{"source": "paper PMC3793924", "about": "“Targeting Androgen Receptor/Src Complex Impairs the Aggressive Phenotype of Human Fibrosarcoma Cells” (PLoS ONE, 2013)", "key": {"HT1080 cell xenografts": {"test_system": "HT1080 cell xenografts", "assay": "HT1080 cell xenografts in nude male mice, tumor mass", "assay_type": "in vivo", "details": "i.p. on alternate days for 4 weeks, Casodex 0.1 μg/mice (4 µg/Kg), DHT 0,1 μg/mice (3 μg/Kg), six animals per group", "method": "Figure 1 Casodex inhibits the EGF-triggered DNA synthesis in human fibrosarcoma HT1080 cells and reduces the growth of HT1080 xenografts. Human fibrosarcoma HT1080 cells were used. In A, quiescent cells on coverslips were left un-stimulated or stimulated for 18 h with the indicated compounds. […] After in vivo pulse with BrdU (100 μM; Sigma), BrdU incorporation was analyzed by IF and expressed as % of total nuclei. Several independent experiments were performed in duplicate and the results were derived from at least 400 scored cells for each coverslip. Mean and SEM are shown. n represents the number of experiments. (**) p value< 0,001. […] In B, xenografts were established in nude male mice as described in Methods. […] Volumes of HT1080 cell xenografts were measured at the indicated times in two dimensions by a caliper and expressed as tumor mass (mm^3). […]\nHT1080 cells in 50% (v/v) Matrigel solution in phosphate-buffered saline (PBS; pH 7.4) were subcutaneously injected in the dorsal posterior region at 2.5 x 10^6 cells/male athymic mice (CD mice, Charles-River Italia) without hormone priming. […] The tumor volumes of HT1080 cell xenografts were measured at indicated intervals in two dimensions by a caliper and expressed as tumor mass (mm^3). This is calculated according to the formula: a^2 × b × 0.5, where a is the width and b is the length of the tumor. […]"}, "HT1080 cells [1]": {"test_system": "HT1080 cells", "assay": "BrdU incorporation (DNA synthesis) in quiescent HT1080 cells", "assay_type": "cell-based, human", "details": "18 h, R1881 and DHT 10 nM, EGF 100 ng/ml", "method": "Human fibrosarcoma HT1080 cells were used. In A, quiescent cells on coverslips were left un-stimulated or stimulated for 18 h with the indicated compounds. […] After in vivo pulse with BrdU (100 μM; Sigma), BrdU incorporation was analyzed by IF and expressed as % of total nuclei. Several independent experiments were performed in duplicate and the results were derived from at least 400 scored cells for each coverslip. Mean and SEM are shown. n represents the number of experiments. […] In B, xenografts were established in nude male mice as described in Methods. On alternate days, animals were intra-peritoneally injected with vehicle alone (vehicle), or the pure androgen antagonist Casodex (Cx: 0.1 μg/mice; 4µg/Kg body weight), or DHT (DHT: 0,1 μg/mice; 3 μg/Kg body weight) alone. Volumes of HT1080 cell xenografts were measured at the indicated times in two dimensions by a caliper and expressed as tumor mass (mm^3). Mean and SEM are shown. n represents the number of experiments.\nQuiescent HT1080 cells were used. […] Casodex (at 10 μM) was used for comparison with the S1 peptide. Upper section in A, Western blot of HT1080 cell lysates with anti-EGFR antibody. […] In B, lysates were immune-precipitated with the anti-Src MAb and Src activity in immune complexes was assayed using acidified enolase, as a substrate. In C, cells on coverslips were left untreated or treated for 18 h with the indicated compounds. After in vivo pulse with BrdU (100 μM), BrdU incorporation was analyzed by IF and expressed as % of total nuclei. Several independent experiments were performed in duplicate and the results were obtained from at least 500 scored cells for each coverslip. Mean and SEM are shown. n represents the number of experiments."}, "HT1080 cells [2]": {"test_system": "HT1080 cells", "assay": "Trans-well migration/invasiveness of HT1080 cells", "assay_type": "cell-based, human", "details": "HT1080 cells, 10 nM R1881, 6 h, collagen pre-coated Trans-well filters"}, "NIH3T3 cells": {"test_system": "NIH3T3 cells", "assay": "BrdU incorporation in NIH3T3 fibroblasts", "assay_type": "cell-based, mouse", "details": "quiescent NIH3T3 cells, 18 h; EGF 100 ng/ml; R1881 10 nM", "method": "NIH3T3 cells were used. In A, cells were transfected with 3416 or 3424 ARE-Luc constructs with or without hAR-expressing plasmid and then made quiescent as reported in Methods. Cells were left unstimulated or stimulated for 18 h with 10 nM R1881. Luciferase activity was assayed, normalized using beta-gal as an internal control, and expressed as fold induction. Three independent experiments were performed in triplicate. Means and SEM are shown; n represents the number of experiments. […] After in vivo labeling with BrdU (100 μM), BrdU incorporation was analyzed by IF and expressed as % of total cells. Several independent experiments were performed in duplicate and data derived from at least 700 scored cells for each coverslip. Mean and SEM are shown. n represents the number of experiments. […] Quiescent NIH3T3 fibroblasts were used. In C, cells on coverslips were left unstimulated or stimulated for 18 h with the indicated compounds. […] After in vivo pulse with BrdU (100 μM), BrdU incorporation was analyzed by IF and expressed as % of total cells. Several independent experiments were performed in duplicate and the results were derived from at least 500 scored cells for each coverslip. Mean and SEM are shown. n represents the number of experiments. […] The Western blot of MCF-7 cell lysate with the anti-tubulin or the anti-EGFR antibody is shown for comparison. In D, cells were left untreated or treated for 6 h with the indicated compounds. […] Cells were allowed to migrate in collagen pre-coated Trans-well filters. Migrated cells were stained and counted as reported in Methods. Results were derived from several independent experiments, each performed in duplicate. Data are expressed as relative increase. Mean and SEM are shown. n represents the number of experiments. […] (PPTX) Click here for additional data file."}}, "data": [{"compound": "C[C@]12CCC(=O)C[C@@H]1CC[C@@H]1[C@@H]2CC[C@]2(C)[C@@H](O)CC[C@@H]12", "note": "[DHT]", "values": [{"measurement": "Growth of HT1080 xenografts (tumor mass)", "setting": "HT1080 cell xenografts", "result": "slightly affected this increase"}, {"measurement": "BrdU incorporation (DNA synthesis) upon stimulation with the compound alone", "setting": "HT1080 cells [1]", "result": "unable to mediate DNA synthesis"}]}, {"compound": "C[C@]1(O)CC[C@H]2[C@@H]3CCC4=CC(=O)CCC4=C3C=C[C@@]21C", "note": "[R1881]", "values": [{"measurement": "Cell motility upon androgen challenge (Trans-well)", "setting": "HT1080 cells [2]", "result": "robustly increases cell motility"}, {"measurement": "BrdU incorporation (DNA synthesis) upon stimulation with the compound alone", "setting": "NIH3T3 cells", "result": "does not induce DNA synthesis"}, {"measurement": "BrdU incorporation (DNA synthesis) upon stimulation with the compound alone", "setting": "HT1080 cells [1]", "result": "unable to mediate DNA synthesis"}]}]}
